Laboratory results from patent US4906794A, “Lysosome liberation inhibitors and histamine release inhibitors” (Mitsubishi Kasei Corporation, priority 1986, dated 1990).

How the values were obtained:
[1] = system: carrageenin-induced rat paw edema; assay: rat carrageenin edema test (carrageenin-induced rat paw edema); type: in vivo, Wistar male rat; settings: 6 rats; for % Inhibition (edema), 2 Hours: 2 hours after carrageenin; for % Inhibition (edema), 3 Hours: 3 hours after carrageenin
Procedure: When […] of 1% (W/V) λ-carrageenin is subcutaneously injected into the left paw of a Wistar male rat of 120 to 150 g, edema is developed in the left paw with a severity peak at 3 to 4 hours after injection--rat carrageenin edema test. It has been known that this carrageenin-induced rat paw edema is an excellent experimental model for inflammation, where histamine is involved in the development of edema immediately after injection of carrageenin, and subsequently such chemical mediators as prostaglandins, leukotrienes, bradykinin and the like are also involved.
The effect of sarcophytol-A on edema was investigated employing this experimental model: sarcophytol-A was orally administered to rats one hour before injection of carrageenin and the volume of the thus induced edema in the rat paw was measured by a volumometer 2 or 3 hours after the injection of carrageenin.
Degrees of edematization are expressed in percentages of paw volume increases after induction with respect to the paw volumes before induction: namely,
% Edematization=(B-A)/A×100
wherein A is the paw volume before induction, and B after induction. Further, inhibiting rates (%) are calculated according to the following equation: […]

[2] = system: polymorphonuclear leukocytes; assay: liberation of lysosomal enzymes (β-glucuronidase) from FMLP-stimulated polymorphonuclear leukocytes; type: cell-based, male Wistar rat; settings: for Liberation (%) of lysosomal enzymes: control (0.1% DMSO) 32.0
Procedure: When 20 ml of 1% casein is intraperitoneally injected to a rat, a large number of polymorphonuclear leukocytes appear in the peritoneal cavity in 5 hours after the injection. Using these polymorphonuclear leukocytes, it is possible to measure the activity of polymorphonuclear leukocytes in an in vitro system. Thus, polymorphonuclear leukocytes are added into a test tube together with a buffer, and cytochalasin B is then added. Five minutes later, a stimulant formyl-methionyl-leucyl-phenylalanine (FMLP) is added. Then, the polymorphonuclear leukocytes liberate lysosomal enzymes. Simultaneously, some active enzymes and leukotrienes are produced. See Wei Hsueh et al., Nature, 290(23), 710-713 (11981).
Thus, polymorphonuclear leukocytes (2×10^6) were collected from the peritoneal cavity of a male Wistar rat of 250 to 350 g in body weight which had been stimulated with casein, and incubated in Hepes buffer (pH 7.4) for 5 minutes. After 5 μg of cytochalasin B was added, the mixture was incubated for an additional one minute. To the mixture, there was added an amount of a drug to be tested and, after incubation for 5 minutes, FMLP (0.1 μM) as a stimulant was added. Five minutes later, 2 volumes of ice-cooled phosphate buffer was added to arrest the reaction. The cells were removed by centrifugation at 1,100 rpm for 5 minutes. The supernatant was assayed for β-glucuronidase activity as an index of lysosomal enzymes. Separately, the total β-glucuronidase activity contained in the polymorphonuclear leukocyte was measured. Thus, liberation rates of lysosomal enzymes were determined as percentages of […]. Inhibition rates were calculated in percentage according to the following equation:
% Inhibition=(1-T/C) ×100
wherein T and C represent the liberation rates (%) of lysosomes for the treated and control groups, respectively.

mast cells [3] = assay: release of histamine from mast cells stimulated with protein extracted from the cuticle of ascarids (IgE antigen); type: cell-based, rat; settings: preincubated before addition of protein extracted from the cuticle of ascarids
mast cells [4] = assay: release of histamine from mast cells stimulated with compound 48/80; type: cell-based, male Wistar rat; settings: for Histamine Release: control (0.1% DMSO) 62.42
Procedure: Such histamine release can also be caused by addition of a synthetic stimulant compound 48/80, ATP (adenosine triphosphate), to mast cells.
Thus, mast cells were collected from the peritoneal cavity of a male Wistar rat of 400 to 450 g in body weight according to conventional procedures. The mast cells (5×10^4) were incubated in Krebs-Ringer buffer (pH 7.4) containing an amount of sarcophytol-A for 10 minutes. The compound 48/80 (100 ng) was added as a stimulant. After incubation for further 10 minutes, cells were removed by centrifugation. Histamine in the supernatant was quantitatively measured according to Shore et al. method: J. Phar. Exp. Ther., 127, 182-186 (1959). Total histamine contained in the mast cells was also measured. Inhibition rates (%) are calculated according to the following equation: […]
wherein T and C represent the amount of histamine released from mast cells after the treatment with the drug, and the total amount contained in the mast cells, respectively.

mast cells [5] = settings: inhibitor of histamine release; cited from earlier work
[6] = 33 mg/kg oral, 1 h before carrageenin

SMILES: COc1ccc2c(c1)c(CC(=O)O)c(C)n2C(=O)c1ccc(Cl)cc1 [Indomethacin, reference compound]
- % Inhibition (edema), 2 Hours ([1]; 10 mg/kg oral, **p<0.01 vs control): 43.5 ± 3.5%
- % Inhibition (edema), 3 Hours ([1]; 10 mg/kg oral, ***p<0.001 vs control): 43.7 ± 3.0%

SMILES: C/C1=C\C=C(\C(C)C)[C@@H](O)C/C(C)=C/CC/C(C)=C/CC1 [Sarcophytol-A]
- Liberation (%) of lysosomal enzymes ([2]; 4 μM, FMLP 0.1 μM): 29.4%
- Liberation (%) of lysosomal enzymes ([2]; 11 μM, FMLP 0.1 μM): 27.2%
- Liberation (%) of lysosomal enzymes ([2]; 33 μM, FMLP 0.1 μM): 26.0%
- Liberation (%) of lysosomal enzymes ([2]; 100 μM, FMLP 0.1 μM): 13.1%
- inhibition at 4 µM ([2]; Rattus norvegicus, Leukocyte, 4 μM, FMLP 0.1 μM, read-out: Inhibition (%) of lysosome liberation): 8.1%
- inhibition at 11 µM ([2]; Rattus norvegicus, Leukocyte, 11 μM, FMLP 0.1 μM, read-out: Inhibition (%) of lysosome liberation): 15.1%
- inhibition at 33 µM ([2]; Rattus norvegicus, Leukocyte, 33 μM, FMLP 0.1 μM, read-out: Inhibition (%) of lysosome liberation): 18.8%
- inhibition at 100 µM ([2]; Rattus norvegicus, Leukocyte, 100 μM, FMLP 0.1 μM, read-out: Inhibition (%) of lysosome liberation): 59%
- liberation of lysosomal enzymes (in words) ([2]; preincubated before addition of the stimulant FMLP): positively inhibited
- % Inhibition (edema), 2 Hours [1, 6]: -3.0 ± 6.5%
- % Inhibition (edema), 3 Hours [1, 6]: 2.4 ± 8.6%
- % Inhibition (edema), 2 Hours ([1]; 100 mg/kg oral, 1 h before carrageenin): 24.4 ± 7.8%
- % Inhibition (edema), 3 Hours ([1]; 100 mg/kg oral, 1 h before carrageenin, **p<0.01 vs control): 26.9 ± 6.9%
- release of histamine (in words) (mast cells [3]): positively inhibited
- Histamine Release (mast cells [4]; 4 μM, compound 48/80 100 ng): 65.32 Fluorescence Intensity
- Histamine Release (mast cells [4]; 11 μM, compound 48/80 100 ng): 59.72 Fluorescence Intensity
- Histamine Release (mast cells [4]; 33 μM, compound 48/80 100 ng): 55.72 Fluorescence Intensity
- Histamine Release (mast cells [4]; 100 μM, compound 48/80 100 ng): 41.45 Fluorescence Intensity
- inhibition at 4 µM (mast cells [4]; Rattus norvegicus, Mast cell, 4 μM, compound 48/80 100 ng): -4.6%
- inhibition at 11 µM (mast cells [4]; Rattus norvegicus, Mast cell, 11 μM, compound 48/80 100 ng): 4.3%
- inhibition at 33 µM (mast cells [4]; Rattus norvegicus, Mast cell, 33 μM, compound 48/80 100 ng): 10.7%
- inhibition at 100 µM (mast cells [4]; Rattus norvegicus, Mast cell, 100 μM, compound 48/80 100 ng): 33.6%
- release of histamine (in words) (mast cells [4]; preincubated before addition of stimulant compound 48/80): positively inhibited

SMILES: O=C(O)c1cc(=O)c2c(OCC(O)COc3cccc4oc(C(=O)O)cc(=O)c34)cccc2o1 [cromoglycate]
- degranulation of mast cells (in words) (mast cells [5]): inhibits degranulation of mast cells
